Columns and labels:
Assay type in all cases: functional
[1] = Growth inhibition of human HCT116 cells at 10 uM after 48 hrs by SRB assay; conditions: HCT-116, 48 h, read-out: GI
[2] = test system: NCI-H522; assay: Growth inhibition of human NCI-H522 cells at 10 uM after 48 hrs by SRB assay; conditions: NCI-H522, 48 h, read-out: GI
[3] = Growth inhibition of human SF295 cells at 10 uM after 48 hrs by SRB assay; conditions: SF-295, 48 h, read-out: GI
[4] = test system: ACHN; assay: Growth inhibition of human ACHN cells at 10 uM after 48 hrs by SRB assay; conditions: read-out: GI
[5] = test system: CCRF-CEM; assay: Growth inhibition of human CCRF-CEM cells at 10 uM after 48 hrs by SRB assay; conditions: read-out: GI
[6] = test system: T47D; assay: Growth inhibition of human T47D cells at 10 uM after 48 hrs by SRB assay; conditions: read-out: GI
[7] = Growth inhibition of human PC3 cells at 10 uM after 48 hrs by SRB assay; conditions: PC-3, 48 h, read-out: GI
[8] = Growth inhibition of human OVCAR4 cells at 10 uM after 48 hrs by SRB assay; conditions: OVCAR-4, 48 h, read-out: GI
[9] = Growth inhibition of human RXF393 cells at 10 uM after 48 hrs by SRB assay; conditions: RXF 393, 48 h, read-out: GI
[10] = Growth inhibition of human SNB75 cells at 10 uM after 48 hrs by SRB assay; conditions: SNB-75, 48 h, read-out: GI
[11] = test system: SR; assay: Growth inhibition of human SR cells at 10 uM after 48 hrs by SRB assay; conditions: read-out: GI
[12] = Growth inhibition of human OVCAR8 cells at 10 uM after 48 hrs by SRB assay; conditions: OVCAR-8, 48 h, read-out: GI
[13] = Growth inhibition of human Hs 578T cells at 10 uM after 48 hrs by SRB assay; conditions: read-out: GI
[14] = Growth inhibition of human BT549 cells at 10 uM after 48 hrs by SRB assay; conditions: BT-549, 48 h, read-out: GI
[15] = test system: NCI-H460; assay: Growth inhibition of human NCI-H460 cells at 10 uM after 48 hrs by SRB assay; conditions: NCI-H460, 48 h, read-out: GI
[16] = test system: U-251; assay: Growth inhibition of human U251 cells at 10 uM after 48 hrs by SRB assay; conditions: U-251, 48 h, read-out: GI
[17] = Growth inhibition of human OVCAR5 cells at 10 uM after 48 hrs by SRB assay; conditions: OVCAR-5, 48 h, read-out: GI
[18] = test system: Malme-3M; assay: Growth inhibition of human MALME-3M cells at 10 uM after 48 hrs by SRB assay; conditions: read-out: GI
[19] = test system: A498; assay: Growth inhibition of human A498 cells at 10 uM after 48 hrs by SRB assay; conditions: A498, 48 h, read-out: GI
[20] = test system: NCI-H226; assay: Growth inhibition of human NCI-H226 cells at 10 uM after 48 hrs by SRB assay; conditions: NCI-H226, 48 h, read-out: GI
[21] = Growth inhibition of human OVCAR3 cells at 10 uM after 48 hrs by SRB assay; conditions: OVCAR-3, 48 h, read-out: GI
[22] = test system: K562; assay: Growth inhibition of human K562 cells at 10 uM after 48 hrs by SRB assay; conditions: K562, 48 h, read-out: GI
[23] = test system: SN12C; assay: Growth inhibition of human SN12C cells at 10 uM after 48 hrs by SRB assay; conditions: read-out: GI
[24] = Growth inhibition of human COLO205 cells at 10 uM after 48 hrs by SRB assay; conditions: COLO 205, 48 h, read-out: GI
[25] = test system: MCF7; assay: Growth inhibition of human MCF7 cells at 10 uM after 48 hrs by SRB assay; conditions: MCF7, 48 h, read-out: GI
[26] = test system: 786-0; assay: Growth inhibition of human 786-0 cells at 10 uM after 48 hrs by SRB assay; conditions: 786-0, 48 h, read-out: GI
[27] = test system: HT-29; assay: Growth inhibition of human HT-29 cells at 10 uM after 48 hrs by SRB assay; conditions: HT-29, 48 h, read-out: GI
[28] = Growth inhibition of human HL-60(TB) cells at 10 uM after 48 hrs by SRB assay; conditions: HL-60, 48 h, read-out: GI
[29] = test system: A549; assay: Growth inhibition of human A549/ATCC cells at 10 uM after 48 hrs by SRB assay; conditions: A549, 48 h, read-out: GI
[30] = Growth inhibition of human Caki1 cells at 10 uM after 48 hrs by SRB assay; conditions: CAKI-1, 48 h, read-out: GI
[31] = test system: MDA-MB-231; assay: Growth inhibition of human MDA-MB-231 cells at 10 uM after 48 hrs by SRB assay; conditions: MDA-MB-231, 48 h, read-out: GI
[32] = Growth inhibition of human HCC2998 cells at 10 uM after 48 hrs by SRB assay; conditions: HCC 2998, 48 h, read-out: GI
[33] = Growth inhibition of human LOXIMVI cells at 10 uM after 48 hrs by SRB assay; conditions: LOX IMVI, read-out: GI
[34] = Growth inhibition of human SF268 cells at 10 uM after 48 hrs by SRB assay; conditions: SF-268, 48 h, read-out: GI
[35] = Growth inhibition of human DU145 cells at 10 uM after 48 hrs by SRB assay; conditions: DU-145, 48 h, read-out: GI
[36] = test system: KM12; assay: Growth inhibition of human KM12 cells at 10 uM after 48 hrs by SRB assay; conditions: KM12, 48 h, read-out: GI
[37] = test system: MDA-MB-435; assay: Growth inhibition of human MDA-MB-435 cells at 10 uM after 48 hrs by SRB assay; conditions: MDA-MB-435, 48 h, read-out: GI
[38] = Growth inhibition of human SKOV3 cells at 10 uM after 48 hrs by SRB assay; conditions: SK-OV-3, 48 h, read-out: GI
[39] = test system: SK-MEL-5; assay: Growth inhibition of human SK-MEL-5 cells at 10 uM after 48 hrs by SRB assay; conditions: SK-MEL-5, 48 h, read-out: GI
[40] = Growth inhibition of human MOLT4 cells at 10 uM after 48 hrs by SRB assay; conditions: MOLT-4, 48 h, read-out: GI
[41] = test system: M14; assay: Growth inhibition of human M14 cells at 10 uM after 48 hrs by SRB assay; conditions: M14, 48 h, read-out: GI
[42] = Growth inhibition of human IGROV1 cells at 10 uM after 48 hrs by SRB assay; conditions: IGROV-1, 48 h, read-out: GI
[43] = test system: NCI-H23; assay: Growth inhibition of human NCI-H23 cells at 10 uM after 48 hrs by SRB assay; conditions: NCI-H23, 48 h, read-out: GI

NS(=O)(=O)c1ccc(Nc2nccc(Nc3ccc4[nH]ncc4c3)n2)cc1
inhibition of growth at 10 µM [1]: 5%
inhibition of growth at 10 µM [2]: 57%
inhibition of growth at 10 µM [3]: 2%
inhibition of growth at 10 µM [4]: -7%
inhibition of growth at 10 µM [5]: 28%
inhibition of growth at 10 µM [6]: 50%
inhibition of growth at 10 µM [7]: 25%
inhibition of growth at 10 µM [8]: -12%
inhibition of growth at 10 µM [9]: 11%
inhibition of growth at 10 µM [10]: 22%
inhibition of growth at 10 µM [11]: 34%
inhibition of growth at 10 µM [12]: 18%
inhibition of growth at 10 µM [13]: 17%
inhibition of growth at 10 µM [14]: -6%
inhibition of growth at 10 µM [15]: 1%
inhibition of growth at 10 µM [16]: 19%
inhibition of growth at 10 µM [17]: -10%
inhibition of growth at 10 µM [18]: -3%
inhibition of growth at 10 µM [19]: 32%
inhibition of growth at 10 µM [20]: 28%
inhibition of growth at 10 µM [21]: -10%
inhibition of growth at 10 µM [22]: 25%
inhibition of growth at 10 µM [23]: 10%
inhibition of growth at 10 µM [24]: -4%
inhibition of growth at 10 µM [25]: 40%
inhibition of growth at 10 µM [26]: -1%
inhibition of growth at 10 µM [27]: 9%
inhibition of growth at 10 µM [28]: 2%
inhibition of growth at 10 µM [29]: 11%
inhibition of growth at 10 µM [30]: -4%
inhibition of growth at 10 µM [31]: 14%
inhibition of growth at 10 µM [32]: -18%
inhibition of growth at 10 µM [33]: 14%
inhibition of growth at 10 µM [34]: 12%
inhibition of growth at 10 µM [35]: -6%
inhibition of growth at 10 µM [36]: 22%
inhibition of growth at 10 µM [37]: 1%
inhibition of growth at 10 µM [38]: -4%
inhibition of growth at 10 µM [39]: 11%
inhibition of growth at 10 µM [40]: 12%
inhibition of growth at 10 µM [41]: 5%
inhibition of growth at 10 µM [42]: -3%
inhibition of growth at 10 µM [43]: 14%

COc1ccc(Nc2nccc(Nc3ccc4[nH]ncc4c3)n2)cc1
inhibition of growth at 10 µM [1]: 81%
inhibition of growth at 10 µM [2]: 81%
inhibition of growth at 10 µM [3]: 52%
inhibition of growth at 10 µM [4]: 71%
inhibition of growth at 10 µM [5]: 102%
inhibition of growth at 10 µM [6]: 104%
inhibition of growth at 10 µM [7]: 87%
inhibition of growth at 10 µM [8]: 67%
inhibition of growth at 10 µM [9]: 68%
inhibition of growth at 10 µM [10]: 34%
inhibition of growth at 10 µM [11]: 96%
inhibition of growth at 10 µM [12]: 91%
inhibition of growth at 10 µM [13]: 53%
inhibition of growth at 10 µM [14]: 56%
inhibition of growth at 10 µM [15]: 75%
inhibition of growth at 10 µM [16]: 64%
inhibition of growth at 10 µM [17]: 48%
inhibition of growth at 10 µM [18]: 24%
inhibition of growth at 10 µM [19]: 63%
inhibition of growth at 10 µM [20]: 72%
inhibition of growth at 10 µM [21]: 51%
inhibition of growth at 10 µM [22]: 95%
inhibition of growth at 10 µM [23]: 57%
inhibition of growth at 10 µM [24]: 74%
inhibition of growth at 10 µM [25]: 87%
inhibition of growth at 10 µM [26]: 56%
inhibition of growth at 10 µM [27]: 88%
inhibition of growth at 10 µM [28]: 40%
inhibition of growth at 10 µM [29]: 76%
inhibition of growth at 10 µM [30]: 62%
inhibition of growth at 10 µM [31]: 51%
inhibition of growth at 10 µM [32]: 37%
inhibition of growth at 10 µM [33]: 81%
inhibition of growth at 10 µM [34]: 53%
inhibition of growth at 10 µM [35]: 68%
inhibition of growth at 10 µM [36]: 90%
inhibition of growth at 10 µM [37]: 65%
inhibition of growth at 10 µM [38]: 48%
inhibition of growth at 10 µM [39]: 98%
inhibition of growth at 10 µM [40]: 99%
inhibition of growth at 10 µM [41]: 67%
inhibition of growth at 10 µM [42]: 49%
inhibition of growth at 10 µM [43]: 60%
